For assay [1], the system named is Escherichia coli. In words: Antibacterial activity against Escherichia coli ATCC 9637 after 2 days by broth dilution method. It is filed as functional. The note with it: ATCC 9637, 48 h.
In assay [2] the test system is Trichophyton mentagrophytes. The assay can be described thus: Antifungal activity against Trichophyton mentagrophytes ATCC 18748 after 5 days by broth dilution method. It is filed as functional. Particulars: ATCC 18748, 120 h. On the technique in general: In broth dilution the organism is exposed to a series of concentrations in liquid medium.
For assay [3], the system named is Klebsiella aerogenes. The assay can be described thus: Antibacterial activity against Enterobacter aerogenes ATCC 13048 after 2 days by broth dilution method. Format: functional. Particulars: ATCC 13048, 48 h.
In assay [4] the test system is Cyberlindnera jadinii. The assay can be described thus: Antifungal activity against Candida utilis ATCC 9226 after 2 days by broth dilution method. The note with it: Williopsis jadinii, ATCC 9226, 48 h. Format: functional.
In assay [5] the test system is Staphylococcus aureus. The assay can be described thus: Antibacterial activity against Staphylococcus aureus ATCC 12598 after 2 days by broth dilution method. Format: functional. The note with it: ATCC 12598, 48 h.
For assay [6], the system named is Proteus vulgaris. The assay can be described thus: Antibacterial activity against Proteus vulgaris ATCC 13315 after 2 days by broth dilution method. Format: functional. The note with it: ATCC 13315, 48 h.
For assay [7], the system named is Penicillium chrysogenum. The assay can be described thus: Antifungal activity against Penicillium chrysogenum ATCC 10106 after 5 days by broth dilution method. Format: functional. The note with it: ATCC 10106, 120 h.
The test system of assay [8] is Cutibacterium acnes. In words: Antibacterial activity against Propionibacterium acnes ATCC 11827 after 2 days by broth dilution method. It is filed as functional. The note with it: ATCC 11827, 48 h.
For assay [9], the system named is Saccharomyces cerevisiae. In words: Antifungal activity against Saccharomyces cerevisiae ATCC 7754 after 2 days by broth dilution method. Particulars: ATCC 7754, 48 h. Format: functional.
Assay [10] concerns Streptococcus mutans. The assay can be described thus: Antibacterial activity against Streptococcus mutans ATCC […] after 2 days by broth dilution method. Format: functional. The note with it: 48 h.
Assay [11] has as its system Corynebacterium ammoniagenes. In words: Antibacterial activity against Brevibacterium ammoniagenes ATCC 6872 after 2 days by broth dilution method. The note with it: ATCC 6872, 48 h. Format: functional.
Assay [12] concerns Pseudomonas aeruginosa. In words: Antibacterial activity against Pseudomonas aeruginosa ATCC 10145 after 2 days by broth dilution method. It is filed as functional. The note with it: ATCC 10145, 48 h.
Assay [13] has as its system Malassezia. In words: Antifungal activity against Pityrosporum ovale ATCC 14521 after 3 days by broth dilution method. Particulars: ATCC 14521, 72 h. Format: functional.
For assay [14], the system named is Bacillus subtilis. The assay can be described thus: Antibacterial activity against Bacillus subtilis ATCC 9372 after 2 days by broth dilution method. Particulars: ATCC 9372, 48 h. Format: functional.
Assay [15] has as its system Cyberlindnera jadinii. In words: Antifungal activity against Candida utilis ATCC 9226 up to 800 ug/ml after 2 days by broth dilution method. It is filed as functional, organism-based.
Assay [16] deals with Trichophyton mentagrophytes. In words: Antifungal activity against Trichophyton mentagrophytes ATCC 18748 up to 800 ug/ml after 5 days by broth dilution method. It is filed as functional, organism-based.
Assay [17] has as its system Streptococcus mutans. In words: Antibacterial activity against Streptococcus mutans ATCC […] up to 800 ug/ml after 2 days by broth dilution method. It is filed as functional, organism-based.
Assay [18] relates to Penicillium chrysogenum. In words: Antifungal activity against Penicillium chrysogenum ATCC 10106 up to 800 ug/ml after 5 days by broth dilution method. It is filed as functional, organism-based.
The subject of assay [19] is Pseudomonas aeruginosa. In words: Antibacterial activity against Pseudomonas aeruginosa ATCC 10145 up to 800 ug/ml after 2 days by broth dilution method. Format: functional, organism-based.
Assay [20] concerns Saccharomyces cerevisiae. The assay can be described thus: Antifungal activity against Saccharomyces cerevisiae ATCC 7754 up to 800 ug/ml after 2 days by broth dilution method. It is filed as functional, organism-based.
The subject of assay [21] is Bacillus subtilis. The assay can be described thus: Antibacterial activity against Bacillus subtilis ATCC 9372 up to 800 ug/ml after 2 days by broth dilution method. Format: functional, organism-based.
The subject of assay [22] is Staphylococcus aureus. The assay can be described thus: Antibacterial activity against Staphylococcus aureus ATCC 12598 up to 800 ug/ml after 2 days by broth dilution method. It is filed as functional, organism-based.
Assay [23] has as its system Proteus vulgaris. In words: Antibacterial activity against Proteus vulgaris ATCC 13315 up to 800 ug/ml after 2 days by broth dilution method. Format: functional, organism-based.
In assay [24] the test system is Klebsiella aerogenes. The assay can be described thus: Antibacterial activity against Enterobacter aerogenes ATCC 13048 up to 800 ug/ml after 2 days by broth dilution method. Format: functional, organism-based.
For assay [25], the system named is Escherichia coli. In words: Antibacterial activity against Escherichia coli ATCC 9637 up to 800 ug/ml after 2 days by broth dilution method. It is filed as functional, organism-based.
The subject of assay [26] is Malassezia. The assay can be described thus: Antifungal activity against Pityrosporum ovale ATCC 14521 up to 800 ug/ml after 3 days by broth dilution method. Format: functional, organism-based.
The subject of assay [27] is Corynebacterium ammoniagenes. In words: Antibacterial activity against Brevibacterium ammoniagenes ATCC 6872 up to 800 ug/ml after 2 days by broth dilution method. Format: functional, organism-based.
The subject of assay [28] is Cutibacterium acnes. In words: Antibacterial activity against Propionibacterium acnes ATCC 11827 up to 800 ug/ml after 2 days by broth dilution method. Format: functional, organism-based.

SMILES strings stand for the structures. In brackets after ≈: the same amount, converted by molar mass. Activity calls are given as the source filed them.

This passage reports MIC and Activity results from ChEMBL document CHEMBL1150081, “Antimicrobial Agents from Tanacetum balsamita” (1995).

One may read the MIC as the smallest concentration in the dilution series that meets the test's criterion for growth inhibition. A high value points to weaker potency.

As to `CCCCC/C=C/C=C/C=O`, the MIC is greater than 800 µg/mL in the assay with Escherichia coli [1]; 1.56 µg/mL (≈ 10.2 µM) in assay [2]; greater than 800 µg/mL against Klebsiella aerogenes [3]; 25 µg/mL (≈ 164 µM) in the assay with Cyberlindnera jadinii [4]; 50 µg/mL (≈ 328 µM) in the assay on Staphylococcus aureus [5]; 25 µg/mL (≈ 164 µM) with Proteus vulgaris [6]. For the same compound, the MIC in the assay on Penicillium chrysogenum [7] is 12.5 µg/mL (≈ 82.1 µM); in the assay on Cutibacterium acnes [8], 12.5 µg/mL (≈ 82.1 µM); in the assay with Saccharomyces cerevisiae [9] it was 25 µg/mL (≈ 164 µM); in the assay on Streptococcus mutans [10], 100 µg/mL (≈ 657 µM); in assay [11] it was 100 µg/mL (≈ 657 µM); with Pseudomonas aeruginosa [12], greater than 800 µg/mL. Besides, the values for the MIC with Malassezia [13] and in the assay on Bacillus subtilis [14] were 12.5 µg/mL (≈ 82.1 µM) and 50 µg/mL (≈ 328 µM), respectively.
`CCCCCCCC/C=C/C=O`: the MIC against Escherichia coli [1] is greater than 800 µg/mL; in [2], 1.56 µg/mL (≈ 9.27 µM); against Klebsiella aerogenes [3], greater than 800 µg/mL; against Cyberlindnera jadinii [4] it was 12.5 µg/mL (≈ 74.3 µM); in the assay on Staphylococcus aureus [5], 12.5 µg/mL (≈ 74.3 µM); in the assay on Proteus vulgaris [6] it was 12.5 µg/mL (≈ 74.3 µM). Also, the MIC in the assay with Penicillium chrysogenum [7] is 6.25 µg/mL (≈ 37.1 µM); in the assay with Cutibacterium acnes [8], 6.25 µg/mL (≈ 37.1 µM); with Saccharomyces cerevisiae [9], 25 µg/mL (≈ 149 µM); against Streptococcus mutans [10] it was 50 µg/mL (≈ 297 µM); in assay [11] it was 25 µg/mL (≈ 149 µM); with Pseudomonas aeruginosa [12], greater than 800 µg/mL. Also, the MIC against Malassezia [13] and against Bacillus subtilis [14] was 25 µg/mL (≈ 149 µM) throughout.
Regarding `CCCCCCC/C=C/C=O` [TRANS-2-DECENAL], the MIC was greater than 800 µg/mL in the assay on Escherichia coli [1]; 3.13 µg/mL (≈ 20.3 µM) in assay [2]; greater than 800 µg/mL with Klebsiella aerogenes [3]; 25 µg/mL (≈ 162 µM) in the assay with Cyberlindnera jadinii [4]; 25 µg/mL (≈ 162 µM) against Staphylococcus aureus [5]; 25 µg/mL (≈ 162 µM) in the assay with Proteus vulgaris [6]. For the same compound, the MIC with Penicillium chrysogenum [7] was 12.5 µg/mL (≈ 81 µM); with Cutibacterium acnes [8], 12.5 µg/mL (≈ 81 µM); against Saccharomyces cerevisiae [9], 25 µg/mL (≈ 162 µM); in the assay on Streptococcus mutans [10] it was 100 µg/mL (≈ 648 µM); in assay [11] it was 50 µg/mL (≈ 324 µM); in the assay on Pseudomonas aeruginosa [12], greater than 800 µg/mL. Also, the MIC against Malassezia [13] and in the assay on Bacillus subtilis [14] was 25 µg/mL (≈ 162 µM) in each case.
In the case of `CCCCCCCCCCCCCCCC(=O)O`, the outcome (in the assay with Cyberlindnera jadinii [15]; in [16]; in the assay with Streptococcus mutans [17]; in the assay on Penicillium chrysogenum [18]; in the assay on Pseudomonas aeruginosa [19]; with Saccharomyces cerevisiae [20]) was inactive. In addition, the result in the assay with Bacillus subtilis [21], in the assay on Staphylococcus aureus [22], with Proteus vulgaris [23], in the assay with Klebsiella aerogenes [24], with Escherichia coli [25] and with Malassezia [26] was inactive. Also, the result (in assay [27]; in the assay with Cutibacterium acnes [28]) was inactive.
Turning to `CCCCCC(=O)O` [HEXANOATE], the MIC against Escherichia coli [1] is greater than 800 µg/mL; in assay [2], 100 µg/mL (≈ 861 µM); against Klebsiella aerogenes [3] it was greater than 800 µg/mL; in the assay with Cyberlindnera jadinii [4] it was 400 µg/mL (≈ 3440 µM); in the assay with Staphylococcus aureus [5], greater than 800 µg/mL; against Proteus vulgaris [6], 400 µg/mL (≈ 3440 µM). The MIC was 400 µg/mL (≈ 3440 µM) with Penicillium chrysogenum [7]; 400 µg/mL (≈ 3440 µM) in the assay with Cutibacterium acnes [8]; 400 µg/mL (≈ 3440 µM) with Saccharomyces cerevisiae [9]; greater than 800 µg/mL with Streptococcus mutans [10]; 400 µg/mL (≈ 3440 µM) in assay [11]; greater than 800 µg/mL against Pseudomonas aeruginosa [12]. For the same compound, the results for the MIC in the assay on Malassezia [13] and against Bacillus subtilis [14] were 400 µg/mL (≈ 3440 µM) and 200 µg/mL (≈ 1720 µM), respectively.
As to `CCCCCC/C=C/C=O` [2-NONENAL], the MIC is 200 µg/mL (≈ 1430 µM) with Escherichia coli [1]; 12.5 µg/mL (≈ 89.1 µM) in assay [2]; 200 µg/mL (≈ 1430 µM) with Klebsiella aerogenes [3]; 25 µg/mL (≈ 178 µM) in the assay with Cyberlindnera jadinii [4]; 50 µg/mL (≈ 357 µM) in the assay on Staphylococcus aureus [5]; 25 µg/mL (≈ 178 µM) with Proteus vulgaris [6]. The MIC in the assay on Penicillium chrysogenum [7] is 50 µg/mL (≈ 357 µM); in the assay on Cutibacterium acnes [8], 25 µg/mL (≈ 178 µM); against Saccharomyces cerevisiae [9], 25 µg/mL (≈ 178 µM); against Streptococcus mutans [10] it was 100 µg/mL (≈ 713 µM); in assay [11], 100 µg/mL (≈ 713 µM); against Pseudomonas aeruginosa [12] it was greater than 800 µg/mL. Besides, the MIC against Malassezia [13] amounted to 25 µg/mL (≈ 178 µM); with Bacillus subtilis [14], 50 µg/mL (≈ 357 µM).
